Results taken from US9150588B2, “Substituted pyridazin-4(1H)-ones as phosphodiesterase 10A inhibitors” (TAKEDA PHARMACEUTICAL COMPANY LIMITED, priority 2010, dated 2015).

These molecules were tested against T1, human PDE10A enzyme (Homo sapiens, UniProt Q9Y233) (assay: PDE10A Enzyme Activity Inhibition Test (SPA, [3H]cGMP substrate)). Conditions: at 100 nM compound; read-out: PDE10A enzyme activity inhibition rate.
T1 construct: Human PDE10A full-length gene was transfected into Sf9 or COS-7 cells; His-tag; made in house; host or cells: Sf9 or COS-7 cells
T1 sequence (Q9Y233 267-1055): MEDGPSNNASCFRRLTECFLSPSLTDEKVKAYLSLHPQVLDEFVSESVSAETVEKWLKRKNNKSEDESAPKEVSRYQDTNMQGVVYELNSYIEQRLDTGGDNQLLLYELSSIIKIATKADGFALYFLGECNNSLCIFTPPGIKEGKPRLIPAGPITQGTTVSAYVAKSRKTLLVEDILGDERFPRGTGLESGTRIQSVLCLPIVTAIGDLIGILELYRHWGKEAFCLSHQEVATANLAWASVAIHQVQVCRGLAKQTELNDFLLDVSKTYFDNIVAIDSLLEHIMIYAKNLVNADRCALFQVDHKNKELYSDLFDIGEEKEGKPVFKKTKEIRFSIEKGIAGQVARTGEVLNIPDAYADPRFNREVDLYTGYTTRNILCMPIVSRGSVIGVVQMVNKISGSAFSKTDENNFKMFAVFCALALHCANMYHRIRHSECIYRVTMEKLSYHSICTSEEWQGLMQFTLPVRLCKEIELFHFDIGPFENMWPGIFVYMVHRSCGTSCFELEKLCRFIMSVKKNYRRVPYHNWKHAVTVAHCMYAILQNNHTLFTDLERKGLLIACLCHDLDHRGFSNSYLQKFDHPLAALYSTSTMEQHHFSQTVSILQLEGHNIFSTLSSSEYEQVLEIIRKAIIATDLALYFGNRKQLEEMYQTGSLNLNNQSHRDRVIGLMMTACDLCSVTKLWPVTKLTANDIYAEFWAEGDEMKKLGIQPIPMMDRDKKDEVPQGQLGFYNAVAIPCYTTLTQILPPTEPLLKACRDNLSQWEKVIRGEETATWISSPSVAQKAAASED
Assay type: biochemical
Experimental: PDE10A Enzyme Activity Inhibition Test
Human PDE10A full-length gene was transfected into Sf9 or COS-7 cells, the cells were disrupted and centrifuged, and human PDE10A enzyme was obtained from the residue. The enzyme extracted from Sf9 cells was partially purified using His-tag affinity column. The enzyme was stored at −70° C. until use. The PDE activity was measured using an SPA (Scintillation Proximity Assay) (GE Healthcare). To measure the inhibitory activity of the compound, 10 μL of serially diluted compound was reacted with 20 μL of PDE enzyme in an assay buffer (50 mM HEPES-NaOH, 8.3 mM MgCl2, 1.7 mM EGTA, 0.1% BSA (pH 7.4)) for 30 min at room temperature. The final concentration of DMSO in the reaction mixture was 1 percent. The compounds were evaluated in duplicate in 96-well half-area plates (Corning). To start the reaction, 10 μL of substrate [^3H] cGMP (25 and 50 nM; GE Healthcare and PerkinElmer, respectively) was added to 40 μL. After 60 min of reaction at room temperature, yttrium SPA beads containing zinc sulphate were added (6 mg/mL, 20 μL) to terminate the PDE reaction. After standing still for 1 hr, the measurement was performed using a scintillation counter (PerkinElmer) and the PDE10A enzyme activity inhibition rate was calculated. The inhibition rate was calculated based on the control containing enzyme and DMSO as 0% and the control without enzyme as 100%.

`O=c1cc(-c2ccnn2-c2ccccc2)nc(-c2ccccc2)[nH]1` [Example 17, 2-phenyl-6-(1-phenyl-1H-pyrazol-5-yl)pyrimidin-4(3H)-one] and `O=c1[nH]cc(-c2ccccc2)nc1-c1ccnn1-c1ccccc1` [Example 13, 5-phenyl-3-(1-phenyl-1H-pyrazol-5-yl)pyrazin-2(1H)-one] cannot be ordered by inhibition at 0.1 µM: under 50% for the first, under 50% for the second.

`O=c1ccn(C2CCN(c3ccccc3)CC2)nc1-c1ccnn1-c1ccccc1` [Example 31, 1-(1-phenylpiperidin-4-yl)-3-(1-phenyl-1H-pyrazol-5-yl)pyridazin-4(1H)-one] and `O=c1ccn(C2CCCN(c3ccccc3)C2)nc1-c1ccnn1-c1ccccc1` (centres unmarked) [Example 46, 1-(1-phenylpiperidin-3-yl)-3-(1-phenyl-1H-pyrazol-5-yl)pyridazin-4(1H)-one] cannot be ordered by inhibition at 0.1 µM: at least 50% for the first, under 50% for the second.

`COc1cn(C2CCN(c3nccs3)CC2)nc(-c2ccnn2-c2ccccc2)c1=O` [Example 53, 5-methoxy-3-(1-phenyl-1H-pyrazol-5-yl)-1-[1-(1,3-thiazol-2-yl)piperidin-4-yl]pyridazin-4(1H)-one] and `COc1cn(C2CCN(c3ncccc3C#N)CC2)nc(-c2ccnn2-c2ccccc2)c1=O` [Example 56, 2-{4-[5-methoxy-4-oxo-3-(1-phenyl-1H-pyrazol-5-yl)pyridazin-1(4H)-yl]piperidin-1-yl}pyridine-3-carbonitrile] cannot be ordered by inhibition at 0.1 µM: at least 50% for the first, at least 50% for the second.

`O=c1[nH]cc(-c2ccccc2)cc1-c1ccnn1-c1ccccc1` [Example 16, 5-phenyl-3-(1-phenyl-1H-pyrazol-5-yl)pyridin-2(1H)-one] and `O=c1[nH]nc(-c2ccccc2)cc1-c1ccnn1-c1ccccc1` [Example 15, 6-phenyl-4-(1-phenyl-1H-pyrazol-5-yl)pyridazin-3(2H)-one] cannot be ordered by inhibition at 0.1 µM: at least 50% for the first, under 50% for the second.

`COc1cn(C2=CCN(Cc3ccccc3)CC2)nc(-c2ccnn2-c2ccccc2)c1=O` [Example 25, 1-(1-benzyl-1,2,3,6-tetrahydropyridin-4-yl)-5-methoxy-3-(1-phenyl-1H-pyrazol-5-yl)pyridazin-4(1H)-one] and `COc1cn(Cc2ccccc2)nc(-c2ccnn2-c2ccccc2)c1=O` [Example 23, 1-benzyl-5-methoxy-3-(1-phenyl-1H-pyrazol-5-yl)pyridazin-4(1H)-one] cannot be ordered by inhibition at 0.1 µM: at least 50% for the first, at least 50% for the second.

`O=c1ccn(C2CCN(c3ccccc3C(F)(F)F)CC2)nc1-c1ccnn1-c1ccccc1` [Example 64, 3-(1-phenyl-1H-pyrazol-5-yl)-1-{1-[2-(trifluoromethyl)phenyl]piperidin-4-yl}pyridazin-4(1H)-one] and `O=c1ccn(C2CCN(Cc3ccccc3)CC2)nc1-c1ccnn1-c1ccccc1` [Example 28, 1-(1-benzylpiperidin-4-yl)-3-(1-phenyl-1H-pyrazol-5-yl)pyridazin-4(1H)-one] cannot be ordered by inhibition at 0.1 µM: under 50% for the first, under 50% for the second.

`COc1cn(S(=O)(=O)c2ccccc2)nc(-c2ccnn2-c2ccccc2)c1=O` [Example 60, 5-methoxy-3-(1-phenyl-1H-pyrazol-5-yl)-1-(phenylsulfonyl)pyridazin-4(1H)-one] and `COc1cn(C2CCc3ccccc3C2)nc(-c2ccnn2-c2ccccc2)c1=O` (centres unmarked) [Example 58, 5-methoxy-3-(1-phenyl-1H-pyrazol-5-yl)-1-(1,2,3,4-tetrahydronaphthalen-2-yl)pyridazin-4(1H)-one] cannot be ordered by inhibition at 0.1 µM: under 50% for the first, at least 50% for the second.

`O=c1ccc(-c2cccc(C(F)(F)F)c2)nn1-c1ccnn1-c1ccccc1` [Example 21, 2-(1-phenyl-1H-pyrazol-5-yl)-6-[3-(trifluoromethyl)phenyl]pyridazin-3(2H)-one] and `O=c1cnn(-c2cccc(C(F)(F)F)c2)cc1-c1ccnn1-c1ccccc1` [Example 19, 5-(1-phenyl-1H-pyrazol-5-yl)-1-[3-(trifluoromethyl)phenyl]pyridazin-4(1H)-one] cannot be ordered by inhibition at 0.1 µM: under 50% for the first, under 50% for the second.

`O=c1cc(-c2ccccc2)oc(-c2ccnn2-c2ccccc2)c1O` [Example 14, 3-hydroxy-6-phenyl-2-(1-phenyl-1H-pyrazol-5-yl)-4H-pyran-4-one] and `COc1c(-c2ccnn2-c2ccccc2)oc(-c2ccccc2)cc1=O` [Example 12, 3-methoxy-6-phenyl-2-(1-phenyl-1H-pyrazol-5-yl)-4H-pyran-4-one] cannot be ordered by inhibition at 0.1 µM: under 50% for the first, under 50% for the second.

`O=c1c(-c2ccnn2-c2ccccc2)nn(-c2cccc(C(F)(F)F)c2)c2c1OCC2` [Example 2, 3-(1-phenyl-1H-pyrazol-5-yl)-1-[3-(trifluoromethyl)phenyl]-6,7-dihydrofuro[3,2-c]pyridazin-4(1H)-one] and `O=c1c(-c2ccnn2-c2ccccc2)nn(-c2cccc(C(F)(F)F)c2)c2ccoc12` [Example 1, 3-(1-phenyl-1H-pyrazol-5-yl)-1-[3-(trifluoromethyl)phenyl]furo[3,2-c]pyridazin-4(1H)-one] cannot be ordered by inhibition at 0.1 µM: at least 50% for the first, at least 50% for the second.

`COc1cn(Cc2cccc(-c3ccccc3)c2)nc(-c2ccnn2-c2ccccc2)c1=O` [Example 61, 1-(biphenyl-3-ylmethyl)-5-methoxy-3-(1-phenyl-1H-pyrazol-5-yl)pyridazin-4(1H)-one] and `COc1cn(Cc2ccccc2C(F)(F)F)nc(-c2ccnn2-c2ccccc2)c1=O` [Example 102, 5-methoxy-3-(1-phenyl-1H-pyrazol-5-yl)-1-[2-(trifluoromethyl)benzyl]pyridazin-4(1H)-one] cannot be ordered by inhibition at 0.1 µM: at least 50% for the first, under 50% for the second.

`O=C(c1ccccc1)N1CCC(n2ccc(=O)c(-c3ccnn3-c3ccccc3)n2)CC1` [Example 49, 1-[1-(phenylcarbonyl)piperidin-4-yl]-3-(1-phenyl-1H-pyrazol-5-yl)pyridazin-4(1H)-one] and `COc1cn(C2CCCc3ccccc32)nc(-c2ccnn2-c2ccccc2)c1=O` (centres unmarked) [Example 97, 5-methoxy-3-(1-phenyl-1H-pyrazol-5-yl)-1-(1,2,3,4-tetrahydronaphthalen-1-yl)pyridazin-4(1H)-one] cannot be ordered by inhibition at 0.1 µM: under 50% for the first, under 50% for the second.

`COc1nc(-c2ccccc2)cn(-c2ccnn2-c2ccccc2)c1=O` [Example 141, 3-methoxy-5-phenyl-1-(1-phenyl-1H-pyrazol-5-yl)pyrazin-2(1H)-one] and `O=c1ccc(-c2ccccc2F)cn1-c1ccnn1-c1ccccc1` [Example 20, 5-(2-fluorophenyl)-1-(1-phenyl-1H-pyrazol-5-yl)pyridin-2(1H)-one] cannot be ordered by inhibition at 0.1 µM: under 50% for the first, under 50% for the second.

`COc1cn(-c2cccc(C(F)(F)F)c2)nc(C2=NC(C)(C)C(=O)N2c2ccccc2)c1=O` [Example 142, 3-(4,4-dimethyl-5-oxo-1-phenyl-4,5-dihydro-1H-imidazol-2-yl)-5-methoxy-1-[3-(trifluoromethyl)phenyl]pyridazin-4(1H)-one] and `O=c1ccn(-c2cccc(C(F)(F)F)c2)cc1-c1ccnn1-c1ccccc1` [Example 18, 3-(1-phenyl-1H-pyrazol-5-yl)-1-[3-(trifluoromethyl)phenyl]pyridin-4(1H)-one] cannot be ordered by inhibition at 0.1 µM: under 50% for the first, under 50% for the second.

`O=c1cc(-c2ccccc2)sc(-c2ccnn2-c2ccccc2)c1` [Example 140, 2-phenyl-6-(1-phenyl-1H-pyrazol-5-yl)-4H-thiopyran-4-one] and `O=c1cc2n(nc1-c1ccnn1-c1ccccc1)-c1ccccc1OC2` [Example 11, 2-(1-phenyl-1H-pyrazol-5-yl)pyridazino[6,1-c][1,4]benzoxazin-3(5H)-one] cannot be ordered by inhibition at 0.1 µM: under 50% for the first, at least 50% for the second.

`COc1cn(CC2CC2)nc(-c2ccnn2-c2ccccc2)c1=O` [Example 59, 1-(cyclopropylmethyl)-5-methoxy-3-(1-phenyl-1H-pyrazol-5-yl)pyridazin-4(1H)-one] and `COc1cn(C2CN(c3ncccc3C(F)(F)F)C2)nc(-c2ccnn2-c2ccccc2)c1=O` [Example 98, 5-methoxy-3-(1-phenyl-1H-pyrazol-5-yl)-1-{1-[3-(trifluoromethyl)pyridin-2-yl]azetidin-3-yl}pyridazin-4(1H)-one] cannot be ordered by inhibition at 0.1 µM: under 50% for the first, at least 50% for the second.
